“And” between values parts separate entries of the source, which are not always exact repeats. Equal values may be shown once. Read-outs that look alike come from different tables or passages of the source. Marks after values point to notes of the source that are not given here.
Tests used:
[1] = system: FCA induced arthritis; experiment: Chronic study: FCA (Freunds Complete Adjuvant) induced arthritis; assay type: in vivo, Swiss Wistar rats; conditions: for Anti-inflammatory activity (% Inhibition) in FCA induced arthritis Day 18: treatment from 13th day
Method: (§1) This activity mimics the onset of autoimmune damage to joints and tests the efficiency of drug against this damage. Leflunamide is taken as positive control. Here Swiss Wistar rats are treated with Freunds Complete Adjuvant (CFA) to induce chronic inflammation symptoms similar to rheumatis diseases. The symptoms appear by 13th day. The drug treatment is started from 13th day to 23rd day for 10 days.
In addition, a disseminated arthritic reaction (secondary response) developed from […] alter FCA injection. The swelling was observed both in the injected paw and in the non-injected contra lateral paw. The reduction of the planter volume was statistically significant for both hind legs. The test compound gave a very impressive reduction of 52% at 100 mg per kg dose which is statistically significant. This compared very well with DMARD drug Leflunomide. However, Leflunomide is highly nephrotoxic and cannot be administered for a long time.

[2] = system: TNF-α; experiment: TNF-α level in serum of FCA induced arthritic rat; assay type: in vivo
Method: as §1
Effect of Test compound and standard drug Celecoxib on TNF-α level in FCA induced arthritis rat. The serum from the FCA induced arthritic rat was examined for Tumor necrosis factor alpha. The experimental protocol was same as example no.

[3] = system: patients with rheumatoid arthritis
[4] = system: Cotton pellet Granuloma; experiment: Sub acute study: cotton pellet granuloma; assay type: in vivo, Swiss Wistar rats; conditions: dried pellet weight after 7 days
Method: This evaluates inflammation over a period of 7 days. This is done by classical animal model (in Swiss Wistar tats) of cotton pallet granuloma. Celecoxib is a positive control for comparison of the efficacy of Test Compound.
100 mg per kg is the optimal dose. A comparison is made with Celecoxib.

[5] = system: paw edema in Carrageenan model; experiment: Acute study: Carrageenan induced paw edema; assay type: in vivo, Swiss Wistar rats; conditions: paw volume at 3 hrs
Method: These tests are for the inhibition of inflammation caused by prostaglandins in short period of time. This can be tested in animal (Swiss Wistar rats) as per well known protocols which are treated with Carrageenan. This model tests out anti-inflammatory activity caused by prostaglandin inhibition. Celecoxib is given as a positive control to do a comparison and evaluate the efficacy of anti-inflammatory purified extract as described above in Prostaglandin inhibition in 3 hrs.
Paw Volume measured is compared with Control group and standard drug, celecoxib. Paw volume initial to the paw volume at 1 h, 2 h, 3 h is measured and peak inhibition, which is at 3 hrs is noted down. In this model efficacy as well as dosage of drug is arrived by considering peak % inhibition. […] This is also not statistically significant.

[6] = system: C-reactive protein; experiment: C-reactive protein test (CRP test kit) in FCA arthritis model; assay type: in vivo, Swiss Wistar rats
Method: This activity mimics the onset of autoimmune damage to joints and tests the efficiency of drug against this damage. Leflunamide is taken as positive control. Here Swiss Wistar rats are treated with Freunds Complete Adjuvant (CFA) to induce chronic inflammation symptoms similar to rheumatis diseases. The symptoms appear by 13th day. The drug treatment is started from 13th day to 23rd day for 10 days. […] In this method the CRP test kit ([…], Dreadnought Trading Estate Bridgeport Dorset DT6 5BU UK) was used for the measurement of CRP. The results are expressed either […] or -ve depending on the formation of precipitate Normal range of CRP: up to 6 mg/L. Below this level is considered to be negative.

[7] = system: gastric mucosa; experiment: Gastric ulcerogenic effects after repeated oral administration; assay type: in vivo, male Swiss Wistar rats
Description: Gastric ulcerogenic effects of Test compound and celecoxib after repeated oral administration for 7 consecutive days to the male Swiss Wistar rats.
In the control group, structure of the gastric mucosa appears normal.

[8] = out of the total 70 patients recruited

## CC(COC1OC(CO)C(O)C(O)C1O)C(C)CC1(O)CC2CC3C4CC=C5CC(OC6OC(CO)C(O)C(O)C6OC6OC(C)C(O)C(O)C6O)CCC5(C)C4CCC3(C)C2C1C (centres unmarked) [Test compound]
[1]; Dose 50 mg/kg
  Anti-inflammatory activity (% Inhibition) in FCA induced arthritis Day 18: 18.04%
[1]; Dose 50 mg/kg, treatment 13th to 23rd day
  Anti-inflammatory activity (% Inhibition) in FCA induced arthritis Day 23: 29.07* %
[1]; Dose 100 mg/kg
  Anti-inflammatory activity (% Inhibition) in FCA induced arthritis Day 18: 32.38%
[1]; Dose 100 mg/kg, treatment 13th to 23rd day (text values print no day), 100 mg/kg
  Anti-inflammatory activity (% Inhibition) in FCA induced arthritis Day 23: 52.81* %
[1]; Dose 100 mg/kg, treatment 13th to 23rd day (text values print no day), listed as test compound, 100 mg/kg
  Anti-inflammatory activity (% Inhibition) in FCA induced arthritis Day 23: 52% and 56%
[1]; Dose 200 mg/kg
  Anti-inflammatory activity (% Inhibition) in FCA induced arthritis Day 18: 25.41%
[1]; Dose 200 mg/kg, treatment 13th to 23rd day
  Anti-inflammatory activity (% Inhibition) in FCA induced arthritis Day 23: 56.55* %
[2]; Day 0
  Concentration of TNF-α in pg/mL Day 0: 36.8 pg/mL
[2]; Day 13
  Concentration of TNF-α in pg/mL Day 13: 45.3 pg/mL
[2]; Day 21
  Concentration of TNF-α in pg/mL Day 21: 36.1 pg/mL
[2]; Day 21, listed as experimental drug
  Concentration of TNF-α in pg/mL Day 21: inhibits TNF-α
[3]; 12 months
  HAQ (Health Assessment Questionnaire) 12 mths (mean): 4.4
  JCSW (Joint count swelling) 12 mths (mean): 1.6
[3]; 12 months, 16 mg per kg body weight
  JCPT (Joint Count Pain/Tenders) 12 mths (mean): 5.5
[3]; 12 months, FIG. 2, listed as test compound
  CRP (C Reactive Protein), nephlometry, over time: reduction
[3]; 12 months, FIG. 3, listed as test compound
  RF (Rheumatoid factor) Titre, nephlometry, over time: reduction
[3]; 12 months, Westergren
  ESR 12 mths (mean): 66
[3]; 12 months, scale 0-10 cms
  painVAS (pain visual analogue scale) 12 mths (mean): 3.6
  patGlobal (patient global assessment) 12 mths (mean): 3.4
  phyGlobal (physician global assessment) 12 mths (mean): 2.6
[3]; Baseline
  HAQ (Health Assessment Questionnaire) Baseline (mean): 8.8
  HDL BASELINE: 44.6
  LDL BASELINE: 117.08
[3]; Baseline ratio
  HDL/LDL BASELINE: 0.41
[3]; Baseline, 66 joints
  JCSW (Joint count swelling) Baseline (mean): 9.5
[3]; Baseline, 68 joints, 16 mg per kg body weight
  JCPT (Joint Count Pain/Tenders) Baseline (mean): 24.3
[3]; Baseline, Westergren
  ESR Baseline (mean): 61.4
[3]; Baseline, scale 0-10 cms
  painVAS (pain visual analogue scale) Baseline (mean): 6.6
  patGlobal (patient global assessment) Baseline (mean): 6.4
  phyGlobal (physician global assessment) Baseline (mean): 5.7
[3]; Patient No. 019
  Patients in Clinical Remission: Duration (Months): 8 Months
[3]; Patient No. 035*, ACR remission, ESR <30 mm
  Patients in Clinical Remission: Duration (Months): 3 Months
[3]; Patient No. 037*, ACR remission, ESR <30 mm
  Patients in Clinical Remission: Duration (Months): 3 Months
[3]; Patient No. 038*, ACR remission, ESR <30 mm
  Patients in Clinical Remission: Duration (Months): 3 Months
[3]; Patient No. 049
  Patients in Clinical Remission: Duration (Months): 5 Months
[3]; Patient No. 051
  Patients in Clinical Remission: Duration (Months): 2 Months
[3]; Patient No. 054*, ACR remission, ESR <30 mm
  Patients in Clinical Remission: Duration (Months): 3 Months
[3]; Patient No. 057
  Patients in Clinical Remission: Duration (Months): 6 Months
[3]; Patient No. 059
  Patients in Clinical Remission: Duration (Months): 5 Months
[3]; Patient No. 112*, ACR remission, ESR <30 mm
  Patients in Clinical Remission: Duration (Months): 7 Months
[3]; at 12 months, printed 95% CI—0.35, −2.90, listed as test compound
  Serum albumin: significant improvements
[3]; at 12 months, printed (95%) CI 1.2, 35, listed as test compound
  Blood Urea Nitrogen: significant improvements
[3]; baseline to 12 months
  ESR Mean change: −3.05
[3]; human, in vivo
  Adverse alterations in routine haematology, biochemistry (renal and hepatic) and metabolic parameters: no significant adverse alterations
  HDL/LDL ratio of rheumatic patients after treatment: 0.45
  Laboratory values for SGOT, SGTP, GGT, Serum bilirubin and Serum creatinine: No significant changes
  Side-effects recorded: Minor side-effects
[3]; mean change from baseline
  HDL MEAN CHANGE: −1.57
  HDL/LDL MEAN CHANGE: −6.1
  LDL MEAN CHANGE: 12.7
[3]; one year study
  ACR 50 improvement response (patients responding): 40%
  Patients who satisfied the ACR criteria for remission that also includes the ESR response: 5 patients
[3]; one year study, 20% improvement in ACR factors
  ACR 20 improvement response (patients responding): 80%
[3]; one year study, P<0.05, listed as test compound
  All clinical efficacy measures (ACR core set), overall result in words: significant disease modifying anti-arthritic action
[3]; [8]
  Patients completely asymptomatic as per ACR core set clinical measures (percent): 11.9%
  Patients completely asymptomatic as per ACR core set clinical measures / remission of disease: 10 patients
[4]; Dose 50 mg/kg
  Anti-inflammatory activity (% Inhibition) in Cotton pellet Granuloma: 24.2* %
[4]; Dose 100 mg/kg, 100 mg/kg
  Anti-inflammatory activity (% Inhibition) in Cotton pellet Granuloma: 33.2* %
[4]; Dose 100 mg/kg, listed as test compound, 100 mg/kg
  Anti-inflammatory activity (% Inhibition) in Cotton pellet Granuloma: 32.3%
[4]; Dose 200 mg/kg
  Anti-inflammatory activity (% Inhibition) in Cotton pellet Granuloma: 39.4** %
[5]; Dose 50 mg/kg
  Anti-inflammatory activity (% Inhibition) in Carrageenan model In 3 Hrs.: 26.49* %
[5]; Dose 100 mg/kg
  Anti-inflammatory activity (% Inhibition) in Carrageenan model In 3 Hrs.: 32.54* %
[5]; Dose 100 mg/kg, listed as test compound
  Anti-inflammatory activity (% Inhibition) in Carrageenan model In 3 Hrs.: 32.44%
[5]; Dose 200 mg/kg
  Anti-inflammatory activity (% Inhibition) in Carrageenan model In 3 Hrs.: 34.44* %
[6]; After 10 Day Treatment, CRP test kit, precipitate
  C-reactive protein After 10 Day Treatment: Negative (Normal range of CRP: up to 6 mg/L. Below this level is considered to be negative)
[6]; Before Treatment, CRP test kit, precipitate
  C-reactive protein Before Treatment: Negative (Normal range of CRP: up to 6 mg/L. Below this level is considered to be negative)
[6]; after treatment
  C-reactive protein in FCA chronic arthritis model (in words): decrease in C-reactive protein
[7]; Dose 200 mg/kg p.o., 7 consecutive days
  Mean score of Lesion intensity: Nil
[7]; rat, in vivo, po, 200 mg/kg
  Average of no. of ulcer per animal: Nil
  No. of animals with ulcer (%): Nil
  Ulcer Index (UI): Nil

From patent US20090012014A1, “Compound, Composition and a Process Thereof” (INDUS BIOTECH PVT. LTD, priority 2007, published 2009)
